# According to PubChem BioAssay AID1996:
# Conditions: buffer; pH 7.4; 200.0 µM
row,solubility kinetic [µg/mL],SMILES
1,> 47.2,CC(C)(C)CN1CCN(CC#Cc2ccccc2)CC1CCO (stereo unspecified)
2,46.2,O=C(NC1CCSC1=O)C1CC(=O)N(c2ccc(F)cc2)C1 (stereo unspecified)
3,> 53.8,O=C(NCc1cccnc1)C(=O)NCC(c1ccco1)N1CCOCC1 (stereo unspecified)
4,1.2,Cc1ccc(-c2csc(NC(=O)c3ccc([N+](=O)[O-])o3)n2)cc1
5,> 50.2,Cc1ccc(C)c(S(=O)(=O)NCCN2CCOCC2)c1.Cl
6,11.2,CCCN(CC(=O)Nc1ccc(F)c(F)c1F)C(=O)c1ccc2c(c1)NC(=O)CS2
7,46.7,COc1ccc(NC(=S)NC(C)c2ccncc2)cc1OC (stereo unspecified)
8,3.4,Cc1cccc2c1N(CCOc1ccccc1)C(=O)C2=O
9,7.8,CN(C)c1ccc(C(=O)OCC(=O)c2ccc[nH]2)cc1
10,0.3,O=C(Nc1ccccc1)c1cccc(C(=O)Nc2ccccc2)n1
11,> 36.7,C=CCNC(=S)Nc1ccc(Cl)cc1F
12,< 0.3,CC(C)C(=O)Nc1ccc(Oc2ccc3c(c2)C(=O)NC3=O)cc1
13,> 51.5,COc1ccc(CC(=O)OCC(=O)Nc2ccc3c(c2)OCO3)cc1
14,> 38.3,CCc1ccc(NC(=O)NCc2ccccn2)cc1
15,> 31.2,Cc1cc(C(=O)N2CCC(C)CC2)on1
16,4.5,O=C1/C(=C\c2ccsc2)NC(=S)N1c1ccccc1
17,1.9,CC(C)c1ccc(C(C)NC(=S)NC2CCCCC2)cc1 (stereo unspecified)
18,> 52.4,O=C(COC(=O)c1ccc([N+](=O)[O-])s1)NNC(=O)c1ccccc1
19,> 42.4,Cc1cc(C(=O)NC2CCCCC2C)c2ccccc2n1 (stereo unspecified)
20,> 46.7,CCOC(=O)c1sc(S(C)=O)c2c1CCc1conc1-2 (stereo unspecified)
21,0.3,Nc1nc(NCc2ccco2)nc(Nc2cccc(F)c2)c1[N+](=O)[O-]

row,solubility kinetic [µg/mL],SMILES
1,> 38.3,Cc1ccc(S(=O)(=O)N2CC[C@@H]2C(=O)O)cc1
2,> 49.7,Cc1ccc(S(=O)(=O)CCC(=O)NCCc2ccccc2)cc1
3,> 51.4,COc1cccc(CC2(CO)CCN(S(=O)(=O)N(C)C)CC2)c1
4,36.5,COc1ccc(OCCCN2CCc3ccccc3C2)cc1.Cl
5,25,CCc1cc(=O)oc2cc(C)cc(OCC(=O)NC3CC3)c12
6,> 44.7,O=C(Nc1cccc(N2C(=O)C=CC2=O)c1)c1cccs1
7,11.9,CCCC(=O)N/C(N)=N/c1nc2ccccc2o1
8,29.7,CC(=O)c1c(O)c2ccccc2n(C(C)C)c1=O
9,> 43,Cc1ccccc1-c1nc2ccc(Cl)cc2c(=O)n1O
10,40,COc1ccc(-c2cccc(C(=O)N3CCOCC3)c2)cc1
11,> 50.8,CCN(Cc1ccccc1)C(=O)CC(=O)N(CC)Cc1ccccc1
12,0.9,CCN(c1ccccc1)c1nc(C#N)nc(N(CC)c2ccccc2)n1
13,7.4,COC(=O)c1c(C)[nH]c(C(=O)OCc2csc(CC(=O)Nc3ccccc3C)n2)c1C
14,> 41,CCOc1ccc(CC(=O)NCCc2cnc[nH]2)cc1
15,9,O=C(NCC(=O)N1CC=C(c2ccccc2)CC1)c1ccc(F)cc1
16,> 36.5,CCN(CC)c1ccc(/C=C(\C#N)C(N)=O)cc1
17,43.5,Cc1cc(-c2ccccc2)nc(SCc2ccc(C(=O)O)cc2)n1
18,16.3,C=C(C)n1c(=O)n(Cc2ccc(C)cc2)c2ccccc21
19,39.7,COc1cnc(-c2ccccn2)nc1N(C)c1ccccc1
20,1,COc1ccc(NC(=O)NC2CCCc3ccccc32)c(OC)c1 (stereo unspecified)
21,> 65,Cc1cc(NS(=O)(=O)c2ccc(NC(=O)c3ccc([N+](=O)[O-])s3)cc2)nc(C)n1

row,solubility kinetic [µg/mL],SMILES
1,> 50,O=C(O)CCn1c(O)c(C=C2N=c3ccccc3=N2)sc1=S
2,> 45.8,Cc1csc(=O)n1CC(=O)Nc1nc2ccccc2s1
3,5.9,COc1ccc(CCNC(=O)c2cc(Cl)nc3ccccc23)cc1
4,> 42.8,CC(Sc1nncs1)C(=O)NC1CCCCC1C (stereo unspecified)
5,> 50.3,CCSc1nnc(NC(=O)c2nc3nc(C)cc(C)n3n2)s1
6,27,COc1cc(CN2CCCCCC2)cc(OC)c1O
7,> 52.2,CCN(CC)S(=O)(=O)c1cc(NC(=O)NCCCl)ccc1C
8,27.8,Cc1cc(C)c(OCCN2CCCC2)c(Cl)c1
9,< 0.6,Cc1ccc(C(=O)Nc2ccc(Cl)cc2C)c(Cl)c1
10,45.2,O=C1NC(c2cccc([N+](=O)[O-])c2)=CCN1c1ccccc1O
11,0.4,CCC(=O)NC(=S)Nc1ccc(S(=O)(=O)NC2CCCCC2)cc1
12,42.1,CN1CCN(CC#CCC2(O)c3ccccc3-c3ccccc32)CC1
13,> 52,Cc1cccc(NC(=O)CN(CCc2ccccc2)S(C)(=O)=O)c1
14,47.7,Cc1ccc(C)c(S(=O)(=O)NCc2ccc3c(c2)OCO3)c1
15,14,CN(C)c1ccc(-c2nc3cc(N)ccc3o2)cc1
16,32.1,CN(C(=O)CCl)C1CCCc2ccccc21 (stereo unspecified)
17,10.8,O=C(Nc1ccc(Cl)cc1F)c1ccc2c(c1)C(=O)N(Cc1ccncc1)C2=O
18,36.1,Fc1ccccc1NC(=S)NCc1ccccc1
19,> 45.2,O=C(Cn1c(=O)cnc2ccccc21)NC1CCC(O)CC1 (stereo unspecified)
20,34.2,Oc1ccc(CN2CCN(c3ncccn3)CC2)cc1
21,33,FC(F)(F)c1ccccc1NC(=S)N1CCCC1

row,solubility kinetic [µg/mL],SMILES
1,> 46.6,CCN(CC)C(=O)c1ccccc1NC(=O)c1ccccc1C
2,4.8,CCn1cc(C(c2ccccc2)C(C(C)=O)[N+](=O)[O-])c2ccccc21 (stereo unspecified)
3,5.5,CCOc1cc(OCC)cc(C(=O)NCc2ccco2)c1
4,48.6,COc1ccc(CNC(=O)Cc2c[nH]c3ccccc23)cc1OC
5,1,CSc1ncccc1C(=O)OCC(=O)c1ccccc1
6,> 48.7,COc1ccc(C(=O)NCC(=O)N2CCc3ccccc3C2)cc1
7,13.3,CC(=O)c1ccc(NC(=O)c2cc(C)no2)cc1
8,34.6,O=c1c2ccccc2nc2n1CCS2(=O)=O
9,22.6,Cc1ccc(OCC(=O)N2CCCCCCC2)cc1C
10,> 46.5,O=C(NNC1CC(=O)N(c2ccccc2)C1=O)c1cccnc1 (stereo unspecified)
11,23.9,COc1ccc(/C=C/C(=O)OCC(=O)NC(C)CCc2ccccc2)cc1OC (stereo unspecified)
12,36.2,COc1ccc(OC)c(NC(=O)COC(=O)Cc2ccsc2)c1
13,> 42.6,C=CCNC(=O)COC(=O)COc1ccc(Cl)cc1
14,> 47,CNc1nc2c(c(=O)[nH]c(=O)n2C)n1CCCc1ccccc1
15,14.4,Cc1ccc(NC(=O)Nc2cnccn2)cc1
16,> 38.7,Cc1csc(NC(=O)c2ccc3nc[nH]c3c2)n1
17,0.8,CC(=O)Nc1ccc(N2CCN(c3ccc(C(F)(F)F)cn3)CC2)nc1
18,> 43.5,Cl.O=C(NN1C(=O)CSC1=S)c1cccnc1
19,5.7,CN(C)S(=O)(=O)c1cccc(NC(=O)c2ccc(N3CCCC3=O)cc2)c1
20,< 0.8,COc1ccc(/C=C2\Oc3cc(OC(=O)N4CCOCC4)ccc3C2=O)cc1
21,> 41.6,O=c1[nH]c(/C=C\c2cccc(F)c2)nc(O)c1[N+](=O)[O-]

row,SMILES,solubility kinetic [µg/mL]
1,O=Cc1cn(Cc2c(F)cccc2Cl)c2ccccc12,5.6
2,COc1cc(C(=O)N2C[C@H]3C[C@@H](C2)c2cccc(=O)n2C3)cc(OC)c1OC,> 57.7
